From patent US20170209544A1, “A PEPTIDE THERAPY TO COUNTERACT INSULIN RESISTANCE AND TYPE 2 DIABETES” (The Regents of the University of California, priority 2014, published 2017)
Where no end group is shown, it is not given here.

Key:
adipocytes = experiment: Leptin production in adipocytes; format: cell-based
From the text: Mutant PST peptides were synthesized and screened. The peptides were synthesized as various deletion peptides of PST. Native PST (SEQ ID NO. 2) inhibited insulin-stimulated glucose uptake and leptin production in adipocytes. The inventors tested various deletion mutant PST peptides whether one or more of them would compete and prevent native PST action in adipocytes.

KO-DIO mice = experiment: Immunoblot of signaling in PST-treated KO-DIO mice; format: in vivo
Procedure: Tissues were homogenized in a buffer containing phosphatase and protease inhibitors. Homogenates were subjected to SDS-PAGE and immunoblotted. Primary antibodies for phosphorylated and total Akt, AMPK, FoxO1, and JNK were from Cell Signaling Technology (Beverly, Mass.). Actin and Srebp-1 antibodies were from Santa Cruz Biotechnology (CA).
Phosphorylation and activation of Akt, an important component of the insulin signaling pathway was analyzed by Western blot. […] Weight-matched saline-treated WT-DIO or KO-DIO and PST-treated KO-DIO mice were fasted for 12 hrs, injected with insulin (0.4 mU/g BW, IP) for 10 min and sacrificed for tissue collection. Tissues were homogenized, lysates were subjected to SDS-PAGE and immunoblotted for p-Akt in muscle (14A, n=4), WAT (14B, n=4) and liver (14C, n=4) and for p-AMPK in muscle (14D), WAT (14E) and liver (14F). “*” Denotes comparison between the indicated groups. “*”: P<0.05, “**”: p<0.01, “***”: p<0.001.
The insulin-stimulated phosphorylation of FoxO1, downstream of Akt (82 kDa pFoxO1 and 95 kDa pFoxO1), in KO-DIO mice was higher in WAT and the liver than corresponding insulin-treated WT-DIO tissues (FIGS. 16A and 16B). Weight-matched saline-treated WT-DIO or KO-DIO and PST-treated KO-DIO mice were fasted for 12 hrs, injected with insulin (0.4 mU/g BW, IP) for 10 min and sacrificed for tissue collection. Tissues were homogenized, lysates were subjected to SDS-PAGE and subsequently immunoblotted to detect phospho-p95-FoxO1 and phospho-p82-FoxO1 signals in WAT (16A, n=4) and phospho-p82-FoxO1 signals in liver (16B, n=4), phospho-p54-Jnk and phospho-p46-Jnk signals in WAT (16C, n=4) and liver (16D, n=4), and p125-Srebp-1 and p-68-Srebp-1 (mature) signals in liver (16E, n=4). “*” Denotes comparison between the indicated groups. “*”: P<0.05, “**”: p<0.01, “***”: p<0.001.

KO-NCD mice = experiment: GTT in NCD-fed Chga-KO mice (acute and chronic); format: in vivo
Procedure: For glucose tolerance tests (GTT), glucose (1 mg/g) was injected intraperitoneally (IP-GTT) (at time zero) or gavaged orally (O-GTT) after a 12-hours fast. Tail-vein glucose levels were measured at −30, 0, 15, 30, 60, 90, and 120 minutes. For insulin tolerance tests (ITT), insulin (0.4 mU/g) was injected intraperitoneally and blood glucose levels were measured at the indicated time points. Chronic PST (5 μg/g/day) and PSTv1 (10 μg/day) treatments were carried out for 15 days. For acute treatment, either peptides or saline were injected 30 minutes before glucose or insulin injection. Synergy Software Kaleidagraph Version 4.0 calculated the area under the curve (AUC) for each line curve.
To determine acute effects, NCD fed Chga-KO mice (KO-NCD) were fasted for 12 hrs, treated with saline, PST (5 μg/g BW), PSTv1 (10 μg/g BW) or PST+PSTv1 for 30 min (−30 min) before injecting glucose (0 min) for (FIG. 14A) IP-GTT (2-way ANOVA: Treatment (Sal vs PST), p<0.0001, Time, p<0.0001; Interaction, p<0.002; Treatment (PST vs PSTv1), p<0.0001; Time, p<0.0001; Interaction, p<0.005; n=7). The corresponding AUC is shown in (FIG. 14B). […]

peritoneal macrophages = experiment: In vitro chemotaxis assay; format: cell-based, mice
Procedure: In vitro chemotaxis assays were performed as previously described. Briefly, thioglycollate-activated peritoneal macrophages were isolated from 8 week-old male C57BL/6J mice and pretreated with the indicated concentrations of PST for 2 hours at 37° C. in serum-free RPMI. For migration analysis, 200,000 peritoneal macrophages were placed in each of the upper chamber of a 4-μm polycarbonate filter (24-transwell format; Corning, Tewksbury, Mass.), whereas compounds resuspended in serum-free RPMI at the indicated concentrations were placed in the lower chamber. After 3 hours of migration at 37° C., cells were fixed in 4% paraformaldehyde, stained with DAPI and counted under the microscope.

Chga-KO mice = experiment: Glucose-stimulated insulin secretion during GTT in Chga-KO mice; format: in vivo
From the text: As shown in FIGS. 4A-4D, to compare the effects of PSTv1 (the peptide with SEQ ID NO. 1) vs. PST on glucose-stimulated insulin secretion (GSIS), the inventors analyzed plasma insulin levels in Chga-KO mice during GTT experiments.

## PEGKGEQEHSQQKEEEEEMAVVPQGLFRG-amide (PEGKGEQEHSQQKEEEEEMAVVPQGLFRG-NH2) [PST, Wild-type human pancreastatin, a chromogranin A derived peptide]
adipocytes
  leptin production: inhibited
KO-DIO mice; WAT
  FoxO1 signaling in WAT: modulated
  increased insulin-stimulated pFoxO1-p95 signals in WAT: reversed
KO-DIO mice; liver
  hepatic AMPK, FoxO1 or Jnk signaling: did not alter
KO-DIO mice; liver, compared to untreated KO-DIO
  Srebp-1c p68 to p125 ratio: decreased
KO-DIO mice; muscle, WAT and liver
  AMPK signaling: did not change the overall pattern
  stimulation of Akt phosphorylation by insulin: completely inhibited
KO-NCD mice; acute, Chga-KO mice on normal chow diet
  blood glucose after acute PST treatment: induces hyperglycemia
KO-NCD mice; chronic PST 5 μg/g BW for 15 days, Chga-KO mice on NCD
  insulin sensitivity (GTT): induced insulin resistance
Peritoneal macrophages; 10 nM PST vs 10 nM Mcp-1
  chemotaxis relative to Mcp-1: 44%
Peritoneal macrophages; peritoneal macrophage cultures
  chemotaxis compared to saline-treated controls: significantly higher levels of chemotaxis
Chga-KO mice
  glucose-stimulated insulin secretion (GSIS): lowers GSIS
  plasma glucose concentration: without lowering plasma glucose concentration
